“And” between values parts separate entries of the source, which are not always exact repeats. Equal entries are not always repeated.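 96-well plates; 48 h exposure; 5 concentrations. Endpoints by linear interpolation between flanking doses. Not reached: highest tested concentration assigned. GI50 = concentration required for 50% inhibition of growth. TGI: total growth inhibition.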

This note sets out measurements from PubChem BioAssay (NCI).

Some test systems named below: CAKI-1 renal; U251 CNS; SN12C renal; UACC-257 melanoma; LOX IMVI melanoma; A549 NSCLC; OVCAR-8 ovarian; OVCAR-3 ovarian; SK-OV-3 ovarian; HS 578T breast.
Holding throughout (assay): NCI anticancer screen, dose series, 48 h

On to `CC(O)C(NC(=O)c1ccccc1)C(=O)N(Cc1ccccc1)Cc1ccccc1` (stereo not given), for which the TGI is 49.9 µM with CAKI-1 renal; > 100 µM in the assay on U251 CNS; > 100 µM in the assay on SN12C renal; > 100 µM with UACC-257 melanoma; > 100 µM in the assay with LOX IMVI melanoma; > 100 µM in the assay on A549 NSCLC. In addition, the TGI in the assay on OVCAR-8 ovarian, in the assay on OVCAR-3 ovarian and in the assay with SK-OV-3 ovarian was > 100 µM each time.
`O=C(CCN1CCCC1)Nc1ccc2c(NCCc3ccccc3)c3ccccc3nc2c1`: the GI50 with CAKI-1 renal was 1.5 µM; in the assay with U251 CNS, 0.329 µM; in the assay with SN12C renal, 0.358 µM; in the assay with UACC-257 melanoma, 1.02 µM; with LOX IMVI melanoma, 0.305 µM; in the assay on A549 NSCLC it was 0.334 µM. The GI50 is 0.532 µM in the assay on OVCAR-8 ovarian, 0.454 µM in the assay with OVCAR-3 ovarian and 0.422 µM with SK-OV-3 ovarian. In addition, the TGI was 5.68 µM in the assay on CAKI-1 renal; 1.55 µM in the assay with U251 CNS; 1.45 µM with SN12C renal; 2.71 µM in the assay on UACC-257 melanoma; 1.22 µM with LOX IMVI melanoma; 1.7 µM in the assay with A549 NSCLC. The TGI in the assay on OVCAR-8 ovarian amounted to 2.72 µM; with OVCAR-3 ovarian, 1.73 µM; in the assay with SK-OV-3 ovarian, 2.07 µM.
On to `O=C1CCCC(O)=C1SC1=C(O)CCCC1=O`, for which the TGI in the assay on CAKI-1 renal, in the assay with U251 CNS, in the assay on SN12C renal, in the assay on UACC-257 melanoma, in the assay with LOX IMVI melanoma and in the assay on A549 NSCLC was > 100 µM in each case. Besides, the TGI in the assay with OVCAR-8 ovarian, in the assay with OVCAR-3 ovarian and in the assay on SK-OV-3 ovarian was > 100 µM throughout.
In the case of `COc1ccccc1NC(=O)C1=C(C)NC(C)=C(C(=O)Nc2ccccc2OC)C1c1cccc2ccccc12`, the TGI in the assay on CAKI-1 renal, in the assay on U251 CNS, with SN12C renal, with UACC-257 melanoma, in the assay on LOX IMVI melanoma and in the assay with A549 NSCLC was > 100 µM throughout. For the same compound, the TGI in the assay with OVCAR-8 ovarian, in the assay on OVCAR-3 ovarian and in the assay on SK-OV-3 ovarian was > 100 µM in each case.
With `N#Cc1cc([N+](=O)[O-])ccc1NC(=O)C(=O)C(C(=O)c1ccc2ccccc2c1)C1OCc2ccccc21` (stereo not given), the TGI was > 50.3 µM in the assay on CAKI-1 renal; 16.8 µM in the assay with U251 CNS; 46.5 µM in the assay on SN12C renal; 28.2 µM in the assay with UACC-257 melanoma; 29.5 µM in the assay with LOX IMVI melanoma; > 89 µM in the assay on A549 NSCLC. The values for the TGI in the assay with OVCAR-8 ovarian, in the assay on OVCAR-3 ovarian and with SK-OV-3 ovarian were 20.9 µM, > 47.6 µM and > 100 µM, respectively.
For the compound `CCCC(=O)c1ccc(=O)n(C)c1`, the TGI with CAKI-1 renal, with U251 CNS, with SN12C renal, in the assay on LOX IMVI melanoma, with A549 NSCLC and in the assay with OVCAR-8 ovarian was > 100 µM throughout. Moreover, the TGI in the assay with OVCAR-3 ovarian and in the assay on SK-OV-3 ovarian was > 100 µM in each case.
With `COc1ccc(-c2nnc(SCC(=O)Nc3ccc(C(=O)/C=C/c4cc(OC)c(OC)c(OC)c4)cc3)n2-c2ccccc2)cc1OC`, the GI50 in the assay with CAKI-1 renal was 8.57 µM; in the assay on U251 CNS, 5.39 µM; in the assay on SN12C renal, > 10 µM; in the assay on UACC-257 melanoma, > 10 µM; with LOX IMVI melanoma, 1.74 µM; with A549 NSCLC it was 4.33 µM. In addition, the figures for the GI50 in the assay on OVCAR-8 ovarian, in the assay on OVCAR-3 ovarian and in the assay with SK-OV-3 ovarian were 5.29 µM, 3.18 µM and 6.06 µM, respectively. For the same compound, the TGI in the assay with CAKI-1 renal is > 10 µM; in the assay with U251 CNS, > 10 µM; in the assay on SN12C renal, > 10 µM; in the assay on UACC-257 melanoma it was > 10 µM; with LOX IMVI melanoma, 4.87 µM; in the assay with A549 NSCLC, > 10 µM. For the same compound, the TGI in the assay with OVCAR-8 ovarian, in the assay on OVCAR-3 ovarian and with SK-OV-3 ovarian was > 10 µM each time.
For the compound `CC(=O)OCCOCNC(=S)N/N=C(\C)c1cccs1`, the TGI in the assay on U251 CNS, in the assay with SN12C renal, in the assay on UACC-257 melanoma, in the assay with LOX IMVI melanoma, in the assay with A549 NSCLC and with OVCAR-8 ovarian was > 100 µM each time. Further, the TGI in the assay on OVCAR-3 ovarian and with SK-OV-3 ovarian was > 100 µM in each case.
As for `CCC(C)c1cccc(C)c1NC(=O)C(=O)Cc1nc2ccccc2s1` (stereo not given), the TGI in the assay on CAKI-1 renal, in the assay with U251 CNS, in the assay with SN12C renal, in the assay on UACC-257 melanoma, in the assay on LOX IMVI melanoma and in the assay on A549 NSCLC was > 100 µM throughout. Moreover, the TGI with OVCAR-8 ovarian, in the assay with OVCAR-3 ovarian and in the assay on SK-OV-3 ovarian was > 100 µM each time.
Consider `c1ccc2cc(C[n+]3ccn(Cc4ccc5ccccc5n4)c3)ccc2c1`, for which the GI50 was 0.406 µM and 3.19 µM in the assay on U251 CNS; 0.347 µM and 2.82 µM in the assay with SN12C renal; 1.25 µM and 4.49 µM in the assay with HS 578T breast; 0.28 µM and 2.7 µM in the assay on UACC-257 melanoma; 0.435 µM and 2.9 µM in the assay with LOX IMVI melanoma; 0.754 µM and 3.72 µM in the assay with OVCAR-8 ovarian. For the same compound, the GI50 in the assay on OVCAR-3 ovarian was 0.316 µM and 2.15 µM; with SK-OV-3 ovarian, 0.671 µM and 3.64 µM. Further, the TGI in the assay with U251 CNS is 12.4 µM and 15.2 µM; with SN12C renal, 6.15 µM and 11 µM; in the assay with HS 578T breast, 12.2 µM and 20.3 µM; in the assay with LOX IMVI melanoma it was 1.68 µM and 11.4 µM; with A549 NSCLC it was 14.1 µM and 24.2 µM; in the assay on OVCAR-8 ovarian, 10.5 µM and 15 µM. Besides, the TGI is 1.98 µM and 13.2 µM with OVCAR-3 ovarian; 4.3 µM and 17.7 µM in the assay with SK-OV-3 ovarian.
On to `CN(C)c1ccc(Nc2c3ccccc3nc3cc(NC(=O)CCN4CCCC4)ccc23)cc1`, for which the GI50 is 0.594 µM in the assay with CAKI-1 renal; 0.227 µM with U251 CNS; 0.197 µM with SN12C renal; 1.65 µM in the assay with UACC-257 melanoma; 0.21 µM with LOX IMVI melanoma; 0.0688 µM in the assay with A549 NSCLC. Moreover, the GI50 is 0.533 µM with OVCAR-8 ovarian, 0.81 µM in the assay on OVCAR-3 ovarian and 0.413 µM in the assay on SK-OV-3 ovarian. Further, the TGI in the assay on CAKI-1 renal amounted to 2.19 µM; with U251 CNS, 1.58 µM; with SN12C renal, 1.25 µM; in the assay with UACC-257 melanoma, 3.51 µM; with LOX IMVI melanoma it was 1.46 µM; in the assay on A549 NSCLC, 1.75 µM. Besides, the TGI in the assay with OVCAR-8 ovarian is 2.96 µM; with OVCAR-3 ovarian, 2.25 µM; in the assay with SK-OV-3 ovarian it was 1.78 µM.
For the compound `CCOc1ccc(NCC2CC/C(=C\c3ccc(Cl)cc3)C2=O)cc1` (stereo not given), the TGI in the assay with CAKI-1 renal is > 73.8 µM; in the assay with U251 CNS, > 57.3 µM; with SN12C renal, > 60.3 µM; with UACC-257 melanoma, > 56.1 µM; with LOX IMVI melanoma, 35.4 µM; with A549 NSCLC, > 100 µM. Further, the TGI was > 52.8 µM in the assay on OVCAR-8 ovarian, > 51.9 µM with OVCAR-3 ovarian and > 100 µM in the assay on SK-OV-3 ovarian.
